Measured values taken from article PMC6072251 (ACS Omega, 2018).
Values after ≈ are worked out from the molar mass of the structure shown. Read-outs that look alike come from different tables or passages of the source.

Assays:
[1] = test system: S. mutans growth; assay: S. mutans growth inhibition assay; assay type: cell-based, Streptococcus mutans UA159; details: Streptococcus mutans, read-out: Growth MIC50
[2] = test system: S. mutans biofilm; assay: S. mutans biofilm formation and inhibition assay; assay type: cell-based, Streptococcus mutans UA159; details: for IC50: Streptococcus mutans
[3] = test system: S. mutans UA159-induced dental caries; assay: Rat model of dental caries; assay type: in vivo, Fischer 344 rats; details: for bacterial colonization (cfu/mandible) / body weight over the course of the study: 100 μM twice daily for 4 weeks; for bacterial colonization (cfu/mandible): compared with control group treated with water; for body weight over the course of the study: in comparison with the control group; for oral tissue (mucosal and gingival tissues) at sacrifice: treated vs nontreated rats
[4] = test system: Gtfs; assay: Zymogram assay of Gtf enzymatic activity; assay type: biochemical, S. mutans UA159; details: compared to DMSO control
[5] = test system: S. mutans; assay: Cell viability / growth of S. mutans; assay type: cell-based
[6] = test system: S. mutans colonization; assay: Sucrose-dependent drosophila colonization model; assay type: in vivo; details: 50 μM, feeding assay, after 7 days of infection
[7] = test system: S. gordonii; assay: Growth of commensal S. gordonii; assay type: cell-based, Streptococcus gordonii DL1
[8] = test system: S. sanguinis; assay: Growth of commensal S. sanguinis; assay type: cell-based, Streptococcus sanguinis SK36

## O=C(/C=C/c1ccc(O)c(O)c1)O[C@@H]1C[C@](O)(C(=O)O)C[C@@H](O)[C@H]1O [Compound 10]
[1]
  MIC50: 1720 ± 53 µM (≈ 611 µg/mL)
[2]; read-out: Biofilm IC50
  IC50: 518 ± 85 µM
[2]; biofilm inhibition over growth inhibition of S. mutans
  Selectivity: 3.3

## Oc1ccc(/C=C/c2cc(O)cc(O)c2)cc1 [Compound 7, resveratrol]
[1]
  MIC50: 546 ± 15.9 µM (≈ 125 µg/mL)
[3]
  bacterial colonization (cfu/mandible): not statistically significant
  body weight over the course of the study: did not lose weight
  oral tissue (mucosal and gingival tissues) at sacrifice: no obvious differences
[4]
  glucan production / Gtf inhibition in zymogram assay (in words): marginal inhibition

## Oc1cc(O)cc(/C=C/c2ccc(O)c(O)c2)c1 [Compound 8, piceatannol]
[5]; S. mutans
  viability of the biofilms and the planktonic cells: not significantly impacted
[5]; S. mutans, at 400 μM
  inhibition of cell viability: 37%
[5]; Streptococcus mutans, read-out: growth inhibited
  inhibition at 52 µM: < 10%
[6]
  fluorescence in the guts of flies fed Gfp-tagged S. mutans: significant decrease in fluorescence
[7]; S. gordonii, at 400 μM
  decrease of cell density: 15–18%
[7]; Streptococcus gordonii, read-out: growth inhibited
  inhibition at 52 µM: < 10%
[1]
  MIC50: 564 ± 37.8 µM (≈ 138 µg/mL)
[2]; read-out: Biofilm IC50, S. mutans biofilm, NI: no inhibition
  IC50: 52 ± 6 µM
[3]
  bacterial colonization (cfu/mandible): not statistically significant
  body weight over the course of the study: did not lose weight
  oral tissue (mucosal and gingival tissues) at sacrifice: no obvious differences
[4]
  glucan production / Gtf inhibition in zymogram assay (in words): greatly reduced glucan production
[8]; S. sanguinis, at 400 μM
  decrease of cell density: 15–18%
[8]; Streptococcus sanguinis, read-out: growth inhibited
  inhibition at 52 µM: < 10%
